Key:
[1] = system: GLXMAW (Soybean, Williams); assay: Postemergence herbicidal evaluation; format: in vivo, Glycine max, (L.) Merr. cv Williams; conditions: postemergence
How it was run: (§1)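 Two-week-old seedlings sprayed with compound in 50/50 acetone/water plus 0.5% TWEEN 20, at about 0.0156 to 0.500 kg/ha, nozzle at 40 psi. Kept in greenhouse; rated visually 4-5 weeks after treatment on a 0-9 scale versus control, repeat tests averaged.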

[2] = system: TRZAWR (Wheat, Winter, cv Riband); assay: Postemergence herbicidal evaluation; format: in vivo, Triticum aestivum; conditions: postemergence
How it was run: as §1

ORYSAT (Rice, Tebonnet) = assay: Preemergence herbicidal evaluation; format: in vivo, Oryza sativa, (L.) Tebonnet; conditions: rated 4-5 weeks after treatment
How it was run: (§2)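 Rating at 4–5 wk post-spray on a 0–9 visual scale vs control. Application: aqueous acetone, ~0.0156–0.500 kg/ha, to soil surface after seeding, preemergence.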

MOOVA (Monochoria) = assay: Preemergence weed control under flooded paddy conditions; format: in vivo, Monochoria vaginalis; conditions: rated 3-4 weeks after treatment
How it was run: (§3)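 Greenhouse paddy assay. Acetone/water (50/50 v/v) solutions dosed into flood water, equivalent to about 0.0313 to 0.500 kg/ha active ingredient, over seeds planted 0.5 cm deep in silt loam. Score: 0-9 visual, based on stand, vigor, malformation, size and chlorosis, 3 to 4 weeks after treatment.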

GALAP (Galium) [3] = assay: Preemergence herbicidal evaluation; format: in vivo, Galium aparine; conditions: rated 4-5 weeks after treatment
How it was run: as §2

[4] = system: SAGPY (Arrowhead (Pygmaea)); assay: Preemergence weed control under flooded paddy conditions; format: in vivo, Sagittaria pygmaea; conditions: rated 3-4 weeks after treatment
How it was run: as §3

CASOB (Sicklepod) = assay: Postemergence herbicidal evaluation; format: in vivo, Cassia obtusifolia; conditions: postemergence
How it was run: as §1

GALAP (Galium) [5] = assay: Postemergence herbicidal evaluation; format: in vivo, Galium aparine; conditions: postemergence
How it was run: as §1

AMBEL (Ragweed, Common) = assay: Postemergence herbicidal evaluation; format: in vivo, Ambrosia artemisifolia; conditions: postemergence
How it was run: as §1

CYPSE (Flatsedge) = assay: Preemergence weed control under flooded paddy conditions; format: in vivo, Cyperus serotinus; conditions: rated 3-4 weeks after treatment
How it was run: as §3

SETVI (Foxtail, Green) = assay: Preemergence herbicidal evaluation; format: in vivo, Setaria viridis; conditions: rated 4-5 weeks after treatment
How it was run: as §2

[6] = system: ECHORC (Watergrass (Calif.)); assay: Preemergence weed control under flooded paddy conditions; format: in vivo, Echinochloa oryzoides; conditions: rated 3-4 weeks after treatment
How it was run: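 Seeds or propagules sown in top 0.5 cm of silt loam soil, flooded 1.5 to 3 cm above surface throughout. Compound in 50/50 v/v aqueous/acetone pipetted into flood water at about 0.0313 to 0.500 kg/ha. Visual 0-9 rating versus control after three to four weeks in greenhouse.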

SMILES: CCOC(=O)CN1C(=O)C(SC)SC1=Nc1cc(-n2c(=O)cc(C(F)(F)F)n(C)c2=O)c(F)cc1Cl (stereo not shown) [Compound 125, Ethyl 2-{{2-chloro-5-[3,6-dihydro-3-methyl-2,6-dioxo-4-(trifluoromethyl)-1(2H)-pyrimidinyl]-4-fluorophenyl}imino}-5-(methylthio)-4-oxo-3-thiazolidineacetate]
- herbicidal rating GLXMAW ([1]; rate 0.0156 kg/ha): 7.3
- herbicidal rating GLXMAW ([1]; rate 0.0313 kg/ha): 8.0
- herbicidal rating GLXMAW ([1]; rate 0.0625 kg/ha): 8.7
- herbicidal rating TRZAWR ([2]; rate 0.0156 kg/ha): 4.3
- herbicidal rating TRZAWR ([2]; rate 0.0313 kg/ha): 5.0
- herbicidal rating TRZAWR ([2]; rate 0.0625 kg/ha): 5.0
- Preemergence herbicidal rating ORYSAT (ORYSAT (Rice, Tebonnet); rate 0.0156 kg/ha): 0.0
- Preemergence herbicidal rating ORYSAT (ORYSAT (Rice, Tebonnet); rate 0.0313 kg/ha): 0.0
- Preemergence herbicidal rating ORYSAT (ORYSAT (Rice, Tebonnet); rate 0.0625 kg/ha): 1.0
- Preemergence herbicidal rating ORYSAT (ORYSAT (Rice, Tebonnet); rate 0.1250 kg/ha): 1.0
- Preemergence herbicidal rating ORYSAT (ORYSAT (Rice, Tebonnet); rate 0.2500 kg/ha): 4.0
- Preemergence herbicidal rating ORYSAT (ORYSAT (Rice, Tebonnet); rate 0.5000 kg/ha): 4.0
- herbicidal effect rating, MOOVA (MOOVA (Monochoria); 0.0313 kg/ha): 5.0
- herbicidal effect rating, MOOVA (MOOVA (Monochoria); 0.0625 kg/ha): 7.0
- herbicidal effect rating, MOOVA (MOOVA (Monochoria); 0.1250 kg/ha): 7.0
- herbicidal effect rating, MOOVA (MOOVA (Monochoria); 0.2500 kg/ha): 9.0
- Preemergence herbicidal rating GALAP (GALAP (Galium) [3]; rate 0.0156 kg/ha): 0.0
- Preemergence herbicidal rating GALAP (GALAP (Galium) [3]; rate 0.0313 kg/ha): 0.0
- Preemergence herbicidal rating GALAP (GALAP (Galium) [3]; rate 0.0625 kg/ha): 0.0
- Preemergence herbicidal rating GALAP (GALAP (Galium) [3]; rate 0.1250 kg/ha): 1.0
- Preemergence herbicidal rating GALAP (GALAP (Galium) [3]; rate 0.2500 kg/ha): 7.0
- Preemergence herbicidal rating GALAP (GALAP (Galium) [3]; rate 0.5000 kg/ha): 9.0
- herbicidal effect rating, SAGPY ([4]; 0.0313 kg/ha): 3.0
- herbicidal effect rating, SAGPY ([4]; 0.0625 kg/ha): 4.0
- herbicidal effect rating, SAGPY ([4]; 0.1250 kg/ha): 4.0
- herbicidal effect rating, SAGPY ([4]; 0.2500 kg/ha): 9.0
- herbicidal rating CASOB (CASOB (Sicklepod); rate 0.0156 kg/ha): 1.0
- herbicidal rating CASOB (CASOB (Sicklepod); rate 0.0313 kg/ha): 2.0
- herbicidal rating CASOB (CASOB (Sicklepod); rate 0.0625 kg/ha): 2.0
- herbicidal rating GALAP (GALAP (Galium) [5]; rate 0.0156 kg/ha): 1.0
- herbicidal rating GALAP (GALAP (Galium) [5]; rate 0.0313 kg/ha): 2.0
- herbicidal rating GALAP (GALAP (Galium) [5]; rate 0.0625 kg/ha): 5.0
- herbicidal rating AMBEL (AMBEL (Ragweed, Common); rate 0.0156 kg/ha): 3.0
- herbicidal rating AMBEL (AMBEL (Ragweed, Common); rate 0.0313 kg/ha): 8.0
- herbicidal rating AMBEL (AMBEL (Ragweed, Common); rate 0.0625 kg/ha): 8.0
- herbicidal effect rating, CYPSE (CYPSE (Flatsedge); 0.0313 kg/ha): 2.0
- herbicidal effect rating, CYPSE (CYPSE (Flatsedge); 0.0625 kg/ha): 4.0
- herbicidal effect rating, CYPSE (CYPSE (Flatsedge); 0.1250 kg/ha): 9.0
- herbicidal effect rating, CYPSE (CYPSE (Flatsedge); 0.2500 kg/ha): 9.0
- Preemergence herbicidal rating SETVI (SETVI (Foxtail, Green); rate 0.0156 kg/ha): 0.0
- Preemergence herbicidal rating SETVI (SETVI (Foxtail, Green); rate 0.0313 kg/ha): 0.0
- Preemergence herbicidal rating SETVI (SETVI (Foxtail, Green); rate 0.0625 kg/ha): 5.0
- Preemergence herbicidal rating SETVI (SETVI (Foxtail, Green); rate 0.1250 kg/ha): 9.0
- Preemergence herbicidal rating SETVI (SETVI (Foxtail, Green); rate 0.2500 kg/ha): 9.0
- Preemergence herbicidal rating SETVI (SETVI (Foxtail, Green); rate 0.5000 kg/ha): 9.0
- herbicidal effect rating, ECHORC ([6]; 0.0313 kg/ha): 2.0
- herbicidal effect rating, ECHORC ([6]; 0.0625 kg/ha): 4.0
- herbicidal effect rating, ECHORC ([6]; 0.1250 kg/ha): 7.0
- herbicidal effect rating, ECHORC ([6]; 0.2500 kg/ha): 7.0

— patent publication US20020137929A1, “1 - (3-heterocyclylphenyl) isothiourea, -isourea, -guanidine and -amidine herbicidal agents” (Intellectual Property Department, BASF Aktiengesellschaft, priority 1998, published 2002)
